# From ChEMBL document CHEMBL1938322, “Towards a modern definition of vitamin E-evidence for a quinone hypothesis” (Bioorg Med Chem Lett, 2012)
# What was measured:
# [1] = Half life in rat plasma at 100 mg/kg, po by HPLC analysis; format: ADME, organism-based; set-up: dose 100 mg/kg, route oral
# [2] = AUC (0 to infinity) in dog plasma at 25 mg/kg, po by HPLC analysis; format: ADME, organism-based, Canis lupus familiaris; set-up: time infinity, dose 25 mg/kg, route oral
# Rattus norvegicus [3] = experiment: Toxicity in Wistar rat assessed as changes in body weight up to 2000 mg/kg, qd for 14 days; format: organism-based; set-up: dose 2000 mg/kg; settings: in vivo, 336 h
# [4] = AUC (0 to infinity) in rat plasma at 100 mg/kg, po by HPLC analysis; format: ADME, organism-based; set-up: time infinity, dose 100 mg/kg, route oral
# [5] = Cmax in rat plasma at 100 mg/kg, po by HPLC analysis; format: ADME, organism-based; set-up: dose 100 mg/kg, route oral
# [6] = AUCt in rat plasma at 100 mg/kg, po by HPLC analysis; format: ADME, organism-based; set-up: dose 100 mg/kg, route oral
# [7] = Half life in mouse plasma at 5 mg/kg, iv by HPLC analysis; format: ADME, organism-based; set-up: dose 5 mg/kg, route intravenous
# [8] = Oral bioavailability in mouse plasma at 10 mg/kg by HPLC analysis; format: ADME, organism-based
# Cytochrome P450 2D6 = Cytochrome P450 2D6 (Homo sapiens, UniProt P10635); experiment: Inhibition of CYP2D6 at 10 uM; format: ADME
# Cytochrome P450 3A4 = Cytochrome P450 3A4 (Homo sapiens, UniProt P08684); experiment: Inhibition of […] at 10 uM; format: ADME
# Fibroblast [9] = experiment: Ratio of idebenone EC50 to compound EC50 for cytoprotection against BSO-induced human FRDA primary patient fibroblasts; format: functional
# [10] = Tmax in dog plasma at 25 mg/kg, po by HPLC analysis; format: ADME, organism-based, Canis lupus familiaris; set-up: dose 25 mg/kg, route oral
# Cytochrome P450 1A2 = molecular target: T1, Cytochrome P450 1A2 (Homo sapiens, UniProt P05177); experiment: Inhibition of CYP1A2 at 10 uM; format: ADME
# T1 sequence (P05177 whole entry): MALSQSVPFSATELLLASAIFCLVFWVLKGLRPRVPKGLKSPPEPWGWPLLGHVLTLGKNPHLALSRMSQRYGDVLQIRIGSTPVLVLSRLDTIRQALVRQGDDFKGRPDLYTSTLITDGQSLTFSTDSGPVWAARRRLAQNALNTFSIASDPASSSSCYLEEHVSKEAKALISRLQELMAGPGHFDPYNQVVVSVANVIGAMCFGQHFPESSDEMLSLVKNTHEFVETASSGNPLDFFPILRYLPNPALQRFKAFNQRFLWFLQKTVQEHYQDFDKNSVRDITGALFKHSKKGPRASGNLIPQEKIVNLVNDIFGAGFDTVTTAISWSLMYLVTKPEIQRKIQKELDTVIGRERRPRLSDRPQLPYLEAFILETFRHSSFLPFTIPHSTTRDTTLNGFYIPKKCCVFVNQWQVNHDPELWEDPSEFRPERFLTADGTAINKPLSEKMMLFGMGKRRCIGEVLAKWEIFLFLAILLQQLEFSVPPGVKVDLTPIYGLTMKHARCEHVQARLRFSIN
# [11] = Tmax in rat plasma at 100 mg/kg, po by HPLC analysis; format: ADME, organism-based; set-up: dose 100 mg/kg, route oral
# [12] = AUC (0 to infinity) in mouse plasma at 10 mg/kg, po by HPLC analysis; format: ADME, organism-based; set-up: time infinity, dose 10 mg/kg, route oral
# [13] = AUCt in mouse plasma at 5 mg/kg, iv by HPLC analysis; format: ADME, organism-based; set-up: dose 5 mg/kg, route intravenous
# Fibroblast [14] = experiment: Ratio of CoQ10 EC50 to compound EC50 for cytoprotection against BSO-induced human FRDA primary patient fibroblasts; format: functional
# [15] = Solubility of the compound; format: physicochemical
# Salmonella typhimurium = experiment: Mutagenic activity in Salmonella Typhimurium by Ames test; format: toxicity, organism-based; settings: salmonella enterica subsp. enterica serovar typhimurium
# [16] = AUCt in mouse plasma at 10 mg/kg, po by HPLC analysis; format: ADME, organism-based; set-up: dose 10 mg/kg, route oral
# [17] = Growth inhibition of human FRDA primary patient fibroblasts after 48 hrs by calcein-AM-based cell viability assay; set-up: species or system Fibroblast; settings: for GI50 at 48 h: FRDA primary patient fibroblasts
# Cytochrome P450 2C19 = Cytochrome P450 2C19 (Homo sapiens, UniProt P33261); experiment: Inhibition of CYP2C19 at 10 uM; format: ADME
# CHO = experiment: Induction of micronucleation in CHO cells; format: cell-based, Cricetulus griseus; settings: chinese hamster
# [18] = Tmax in mouse plasma at 10 mg/kg, po by HPLC analysis; format: ADME, organism-based; set-up: dose 10 mg/kg, route oral
# Fibroblast [19] = experiment: Ratio of alpha-tocopherol EC50 to compound EC50 for cytoprotection against BSO-induced human FRDA primary patient fibroblasts; format: functional
# [20] = AUC (0 to infinity) in mouse plasma at 5 mg/kg, iv by HPLC analysis; format: ADME, organism-based; set-up: time infinity, dose 5 mg/kg, route intravenous
# [21] = Half life in mouse plasma at 10 mg/kg, po by HPLC analysis; format: ADME, organism-based; set-up: dose 10 mg/kg, route oral
# [22] = Half life in dog plasma at 25 mg/kg, po by HPLC analysis; format: ADME, organism-based, Canis lupus familiaris; set-up: dose 25 mg/kg, route oral
# [23] = Cmax in mouse plasma at 10 mg/kg, po by HPLC analysis; format: ADME, organism-based; set-up: dose 10 mg/kg, route oral
# Rattus norvegicus [24] = experiment: Toxicity in Wistar rat assessed as changes in food intake up to 2000 mg/kg, qd for 14 days; format: organism-based; set-up: dose 2000 mg/kg; settings: in vivo, 336 h
# Rattus norvegicus [25] = experiment: Toxicity in Wistar rat assessed as changes in water intake up to 2000 mg/kg, qd for 14 days; format: organism-based; set-up: dose 2000 mg/kg; settings: in vivo, 336 h
# [26] = Volume of distribution in mouse plasma at 5 mg/kg, iv by HPLC analysis; format: ADME, organism-based; set-up: dose 5 mg/kg, route intravenous
# Rattus norvegicus [27] = organism: Rattus norvegicus; experiment: Prolongation of partial thromboplastin time in male Wistar rat; format: ADME, organism-based; settings: in vivo
# Fibroblast [28] = experiment: Cytoprotective activity against BSO-induced human FRDA primary patient fibroblasts compound pretreated 12 hrs prior to BSO-induction measured after 48 hrs by calcein-AM-based cell viability assay; format: functional
# [29] = Growth inhibition of human primary fibroblasts after 48 hrs by calcein-AM-based cell viability assay; set-up: species or system Fibroblast
# [30] = Therapeutic index, ratio of LC50 to GI50 for human FRDA primary patient fibroblasts; format: cell-based, Fibroblast; settings: for selectivity ratio: FRDA primary patient fibroblasts, read-out: TI
# Cytochrome P450 2C9 = Cytochrome P450 2C9 (Homo sapiens, UniProt P11712); experiment: Inhibition of CYP2C9 at 10 uM; format: ADME
# Rattus norvegicus [31] = organism: Rattus norvegicus; experiment: Prolongation of partial thromboplastin time in female Wistar rat; format: ADME, organism-based; settings: in vivo
# [32] = AUCt in dog plasma at 25 mg/kg, po by HPLC analysis; format: ADME, organism-based, Canis lupus familiaris; set-up: dose 25 mg/kg, route oral
# [33] = Clearance in mouse plasma at 5 mg/kg, iv by HPLC analysis; format: ADME, organism-based; set-up: dose 5 mg/kg, route intravenous
# [34] = Cmax in dog plasma at 25 mg/kg, po by HPLC analysis; format: ADME, organism-based, Canis lupus familiaris; set-up: dose 25 mg/kg, route oral
# Chain of Cytochrome P450 2C19 (P33261 whole entry): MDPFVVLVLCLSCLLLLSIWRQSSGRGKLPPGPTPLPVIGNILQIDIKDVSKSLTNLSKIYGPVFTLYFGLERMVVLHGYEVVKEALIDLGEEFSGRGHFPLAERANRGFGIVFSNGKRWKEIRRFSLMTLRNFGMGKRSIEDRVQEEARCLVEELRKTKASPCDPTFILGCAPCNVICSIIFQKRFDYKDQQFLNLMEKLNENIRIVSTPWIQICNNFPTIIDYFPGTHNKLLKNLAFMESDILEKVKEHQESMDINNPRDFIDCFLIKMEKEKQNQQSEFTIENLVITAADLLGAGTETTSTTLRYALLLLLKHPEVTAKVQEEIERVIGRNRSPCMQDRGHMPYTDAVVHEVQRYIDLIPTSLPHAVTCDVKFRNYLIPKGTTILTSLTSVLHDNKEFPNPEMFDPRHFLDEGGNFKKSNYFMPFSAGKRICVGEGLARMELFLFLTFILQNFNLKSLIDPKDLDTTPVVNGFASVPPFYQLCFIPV
# Chain of Cytochrome P450 3A4 (P08684 whole entry): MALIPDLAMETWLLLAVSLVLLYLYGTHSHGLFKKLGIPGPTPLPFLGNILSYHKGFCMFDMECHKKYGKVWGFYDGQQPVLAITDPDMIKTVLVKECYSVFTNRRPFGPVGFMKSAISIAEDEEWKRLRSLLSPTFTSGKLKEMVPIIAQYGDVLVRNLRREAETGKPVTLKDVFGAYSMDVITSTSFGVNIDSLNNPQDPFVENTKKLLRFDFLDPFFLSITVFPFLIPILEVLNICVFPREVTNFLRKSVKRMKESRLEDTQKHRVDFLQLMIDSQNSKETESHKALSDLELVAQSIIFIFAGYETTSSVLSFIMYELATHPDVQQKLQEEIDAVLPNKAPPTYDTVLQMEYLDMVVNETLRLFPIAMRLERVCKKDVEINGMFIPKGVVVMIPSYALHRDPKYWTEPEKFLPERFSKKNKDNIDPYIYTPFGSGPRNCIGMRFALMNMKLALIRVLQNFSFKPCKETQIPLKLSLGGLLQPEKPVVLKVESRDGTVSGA
# Chain of Cytochrome P450 2D6 (P10635 whole entry): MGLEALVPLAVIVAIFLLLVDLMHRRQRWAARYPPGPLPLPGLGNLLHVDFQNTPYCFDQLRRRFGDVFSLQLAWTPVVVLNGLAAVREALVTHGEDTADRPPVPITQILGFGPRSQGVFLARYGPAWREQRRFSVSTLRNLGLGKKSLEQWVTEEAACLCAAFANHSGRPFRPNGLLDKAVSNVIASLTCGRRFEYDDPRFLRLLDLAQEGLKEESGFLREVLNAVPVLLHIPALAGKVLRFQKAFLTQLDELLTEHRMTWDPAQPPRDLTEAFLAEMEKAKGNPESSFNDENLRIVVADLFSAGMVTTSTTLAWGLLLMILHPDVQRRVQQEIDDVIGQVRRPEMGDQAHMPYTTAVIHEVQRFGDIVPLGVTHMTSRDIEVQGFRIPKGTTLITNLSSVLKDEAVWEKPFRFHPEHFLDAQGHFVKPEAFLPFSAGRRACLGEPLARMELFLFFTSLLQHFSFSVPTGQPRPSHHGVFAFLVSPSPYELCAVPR
# Chain of Cytochrome P450 2C9 (P11712 whole entry): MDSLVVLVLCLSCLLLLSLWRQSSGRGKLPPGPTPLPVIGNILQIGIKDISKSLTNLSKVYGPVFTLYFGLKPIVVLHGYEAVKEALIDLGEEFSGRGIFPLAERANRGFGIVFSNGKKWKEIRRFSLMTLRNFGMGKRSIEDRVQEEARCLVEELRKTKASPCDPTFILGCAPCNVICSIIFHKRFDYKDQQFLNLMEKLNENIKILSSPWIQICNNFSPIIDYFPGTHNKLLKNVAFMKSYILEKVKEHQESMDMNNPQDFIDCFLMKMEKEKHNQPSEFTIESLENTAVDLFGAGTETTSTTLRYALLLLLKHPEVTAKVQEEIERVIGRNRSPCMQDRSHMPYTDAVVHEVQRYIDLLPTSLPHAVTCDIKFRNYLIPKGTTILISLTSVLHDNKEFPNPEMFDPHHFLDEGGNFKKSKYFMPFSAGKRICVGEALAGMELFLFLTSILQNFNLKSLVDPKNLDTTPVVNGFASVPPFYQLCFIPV
compound,measurement,setting,value
CC1=C(C)C(=O)C(CC[C@](C)(O)CCC[C@H](C)CCC[C@H](C)CCCC(C)C)=C(C)C1=O,half-life,[1],16.6 h
same,AUC(0-inf),[2],16800 ng·h/mL
same,Activity,Rattus norvegicus [3],Non-toxic
same,AUC(0-inf),[4],27900 ng·h/mL
same,Cmax,[5],3010 ng/mL
same,AUC(0-t),[6],26400 ng·h/mL
same,half-life,[7],16.2 h
same,bioavailability,[8],24%
same,inhibition (INH),Cytochrome P450 2D6,Not Active
same,inhibition (INH),Cytochrome P450 3A4,Not Active
same,Ratio EC50,Fibroblast [9],35
same,Tmax,[10],2 h
same,inhibition (INH),Cytochrome P450 1A2,Not Active
same,Tmax,[11],4 h
same,AUC(0-inf),[12],2070 ng·h/mL
same,AUC(0-t),[13],3980 ng·h/mL
same,Ratio EC50,Fibroblast [14],200
same,solubility,[15],10 µM
same,Activity,Salmonella typhimurium,Non-toxic
same,AUC(0-t),[16],1980 ng·h/mL
same,GI50 at 48 h,[17],≥ 300 µM
same,inhibition (INH),Cytochrome P450 2C19,Not Active
same,Activity,CHO,Non-toxic
same,Tmax,[18],1 h
same,Ratio EC50,Fibroblast [19],7
same,AUC(0-inf),[20],4240 ng·h/mL
same,half-life,[21],5.8 h
same,half-life,[22],23.7 h
same,Cmax,[23],519 ng/mL
same,Activity,Rattus norvegicus [24],Non-toxic
same,Activity,Rattus norvegicus [25],Non-toxic
same,Vd,[26],27.6 L/kg
same,Activity,Rattus norvegicus [27],Dose-dependent effect
same,Activity,Fibroblast [28],Dose-dependent effect
same,EC50,"Fibroblast [28]; Homo sapiens, Fibroblast",0.036 µM
same,GI50 at 48 h,[29],≥ 300 µM
same,selectivity ratio,[30],≥ 8330
same,inhibition (INH),Cytochrome P450 2C9,Not Active
same,Activity,Rattus norvegicus [31],Dose-dependent effect
same,AUC(0-t),[32],14200 ng·h/mL
same,clearance,[33],20 mL/min/kg
same,Cmax,[34],2370 ng/mL
COC1=C(OC)C(=O)C(C/C=C(\C)CC/C=C(\C)CC/C=C(\C)CC/C=C(\C)CC/C=C(\C)CC/C=C(\C)CC/C=C(\C)CC/C=C(\C)CC/C=C(\C)CCC=C(C)C)=C(C)C1=O [UBIDECARENONE],GI50 at 48 h,[17],220 µM
COC1=C(OC)C(=O)C(CCCCCCCCCCO)=C(C)C1=O [IDEBENONE],GI50 at 48 h,[17],98 µM
same,EC50,"Fibroblast [28]; Homo sapiens, Fibroblast",0.592 µM
same,selectivity ratio,[30],165
VITAMIN E,GI50,"[17]; fibroblast, 48 h",≥ 300 µM
same,EC50,Fibroblast [28]; fibroblast,0.234 µM
same,TI,[30]; fibroblast,>= 1282
